What was measured:
H358 cells = experiment: Cell proliferation assay, H358 cells (Cell-titer Glo); type: cell-based; settings: Homo sapiens, NCI-H358; inhibiting H358 cells, 96-well ultra-low adsorption plate, 96 h incubation, Cell-titer Glo luminescence
Method: (§1) Pave the H358 cells on a 96-well ultra-low adsorption plate with 2000 cells and 190 μL/well. After incubating overnight, compound solutions of gradient concentration was prepared, and added 10 μL of DMSO solution of the test compound of each concentration to the cells of each well. The final concentration of the compound is 10000, 3333.3, 1111.1, 370.4, 123.5, 41.2, 13.7, 4.6, 1.5, 0 nM (the final concentration of DMSO is 0.25%). Incubated for 96 h at 37° C. and 5% CO2. 50 μL of Cell-titer Glo working solution was added to each well, shaked and mixed, and incubated at room temperature for 10 minutes. The multi-functional microplate reader read the luminescence value, and converted the luminescence value reading into inhibition percentage.
(§2) Inhibition percentage=(maximum value−reading)/(maximum value−minimum value)*100.
(§3) The “maximum value” was the DMSO control, the “minimum value” indicates the cell-free control group.
(§4) Graphpad Prism software was used to perform curve fitting and obtain IC50 value.
Refer to table 3 for the IC50 data of some compounds in the Examples for inhibiting H358 cells.

MIA-PACA-2 cells = experiment: Cell proliferation assay, MIA-PACA-2 cells (Cell-titer Glo); type: cell-based; settings: Homo sapiens; inhibiting MIA-PACA-2 cells, 96-well ultra-low adsorption plate, 96 h incubation, Cell-titer Glo luminescence
Method: as §1, with “the MIA-PACA-2” for “the H358”, “cells into” for “cells on”, “plate at 600 cells, 160” for “plate with 2000 cells and 190”, “added 40” for “added 10”, “10000, 2000, 400, 80, 16, 3.2, 0.64, 0.12, 0.025,” for “10000, 3333.3, 1111.1, 370.4, 123.5, 41.2, 13.7, 4.6, 1.5,”
as §2, §3, §4
Refer to Table 2 for the IC50 data of some compounds in the examples inhibiting MIA-PACA-2 cells.

| Structure (SMILES) | IC50 (H358 cells) [µM] | IC50 (MIA-PACA-2 cells) [µM] |
| --- | --- | --- |
| C=CC(=O)N1CCn2c(nnc2-c2cc(F)c(-c3c(O)cccc3F)c(Cl)c2)C1 [Example 1, 1-(3-(2-chloro-2′,6-difluoro-6′-hydroxy-[1,1′-biphenyl]-4-yl)-5,6-dihydro-[1,2,4]triazolo[4,3-a]pyrazin-7(8H)-yl)prop-2-en-1-one] | 1 to 10 | 1 to 10 |
| C=CC(=O)N1CCn2c(nnc2-c2cc(F)c(-c3c(O)ccc(Cl)c3F)c(Cl)c2)C1 [Example 2, 1-(3-(2,3′-dichloro-2′,6-difluoro-6′-hydroxy-[1,1′-biphenyl]-4-yl)-5,6-dihydro-[1,2,4]triazolo[4,3-a]pyrazin-7(8H)-yl)prop-2-en-1-one] | ≤ 1 | ≤ 1 |
| C=CC(=O)N1CCn2c(nnc2-c2cc(F)c(-c3c(O)c(Cl)cc(Cl)c3F)c(Cl)c2)C1 [Example 3, 1-(3-(2,3′,5′-trichloro-2′,6-difluoro-6′-hydroxy-[1,1′-biphenyl]-4-yl)-5,6-dihydro-[1,2,4]triazolo[4,3-a]pyrazin-7(8H)-yl)prop-2-en-1-one] | ≤ 1 | ≤ 1 |
| C=C(F)C(=O)N1CCn2c(nnc2-c2cc(F)c(-c3c(O)cccc3F)c(Cl)c2)C1 [Example 4, 1-(3-(2-chloro-2′,6-difluoro-6′-hydroxy-[1,1′-biphenyl]-4-yl)-5,6-dihydro-[1,2,4]triazolo[4,3-a]pyrazin-7(8H)-yl)-2-fluoroprop-2-en-1-one] | > 10 | > 10 |
| C=CC(=O)N1CCn2c(nnc2-c2cc(F)c(-c3c(C)ccc4[nH]ncc34)c(Cl)c2)C1 [Example 5, 1-(3-(3-chloro-5-fluoro-4-(5-methyl-1H-indazol-4-yl)phenyl)-5,6-dihydro-[1,2,4]triazolo[4,3-a]pyrazin-7(8H)-yl)prop-2-en-1-one] | 1 to 10 | 1 to 10 |
| C=CC(=O)N1CCn2c(-c3cc(F)c(-c4c(O)cccc4F)c(Cl)c3)cnc2C1 [Example 6, 1-(3-(2-chloro-2′,6-difluoro-6′-hydroxy-[1,1′-biphenyl]-4-yl)-5,6-dihydroimidazo[1,2-a]pyrazin-7(8H)-yl)prop-2-en-1-one] | 1 to 10 | ≤ 1 |
| C=CC(=O)N1CCn2c(nnc2-c2cc(F)c(-c3c(F)ccc(Cl)c3N)c(Cl)c2)C1 [Example 7, 1-(3-(2′-amino-2,3′-dichloro-6,6′-difluoro-[1,1′-biphenyl]-4-yl)-5,6-dihydro-[1,2,4]triazolo[4,3-a]pyrazin-7(8H)-yl)prop-2-en-1-one] | > 10 | > 10 |
| C=CC(=O)N1CCn2c(cnc2-c2cc(F)c(-c3c(O)cccc3F)c(Cl)c2)C1 [Example 8, 1-(3-(2-chloro-2′,6-difluoro-6′-hydroxy-[1,1′-biphenyl]-4-yl)-5,6-dihydroimidazo[1,5-a]pyrazin-7(8H)-yl)prop-2-en-1-one] | 1 to 10 | 1 to 10 |
| C=CC(=O)N1CCn2c(cnc2-c2cc(F)c(-c3c(F)ccc(Cl)c3O)c(Cl)c2)C1 [Example 9, 1-(3-(2,3′-dichloro-6,6′-difluoro-2′-hydroxy-[1,1′-biphenyl]-4-yl)-5,6-dihydroimidazo[1,5-a]pyrazin-7(8H)-yl)prop-2-en-1-one] | – | 1 to 10 |
| C=CC(=O)N1CCn2c(cnc2-c2cc(F)c(-c3c(O)c(Cl)cc(Cl)c3F)c(Cl)c2)C1 [Example 10, 1-(3-(2,3′,5′-trichloro-2′,6-difluoro-6′-hydroxy-[1,1′-biphenyl]-4-yl)-5,6-dihydroimidazo[1,5-a]pyrazin-7(8H)-yl)prop-2-en-1-one] | – | > 10 |
| C=CC(=O)N1CCn2c(nnc2-c2cc(F)c(-c3c(O)cccc3F)c(C=C)c2)C1 [Example 11, 1-(3-(2,2′-difluoro-6′-hydroxy-6-vinyl-[1,1′-biphenyl]-4-yl)-5,6-dihydro-[1,2,4]triazolo[4,3-a]pyrazin-7(8H)-yl)prop-2-en-1-one] | – | > 10 |
| C=CC(=O)N1CCn2c(nc(-c3ccccc3C(C)C)c2-c2cc(F)c(-c3c(O)cccc3F)c(Cl)c2)C1 [Example 12, 1-(3-(2-chloro-2′,6-difluoro-6′-hydroxy-[1,1′-biphenyl]-4-yl)-2-(2-isopropylphenyl)-5,6-dihydroimidazo[1,2-a]pyrazin-7(8H)-yl)prop-2-en-1-one] | – | > 10 |
| C=CC(=O)N1CCn2c(nc(-c3ccccc3C(C)C)c2-c2cc(F)c(-c3c(F)ccc(Cl)c3O)c(Cl)c2)C1 [Example 13, 1-(3-(2,3′-dichloro-6,6′-difluoro-2′-hydroxy-[1,1′-biphenyl]-4-yl)-2-(2-isopropylphenyl)-5,6-dihydroimidazo[1,2-a]pyrazin-7(8H)-yl)prop-2-en-1-one] | – | ≤ 1 |
| C=CC(=O)N1CCn2c(nc(-c3ccccc3C(C)C)c2-c2cc(F)c(-c3c(O)c(Cl)cc(Cl)c3F)c(Cl)c2)C1 [Example 14, 1-(2-(2-isopropylphenyl)-3-(2,3′,5′-trichloro-2′,6-difluoro-6′-hydroxy-[1,1′-biphenyl]-4-yl)-5,6-dihydroimidazo[1,2-a]pyrazin-7(8H)-yl)prop-2-en-1-one] | – | 1 to 10 |
| C=CC(=O)N1CCn2c(-c3cc(F)c(-c4c(F)ccc(Cl)c4O)c(Cl)c3)cnc2C1 [Example 15, 1-(3-(2,3′-dichloro-6,6′-difluoro-2′-hydroxy-[1,1′-biphenyl]-4-yl)-5,6-dihydroimidazo[1,2-a]pyrazin-7(8H)-yl)prop-2-en-1-one] | – | > 10 |
| C=CC(=O)N1CCn2c(nnc2-c2cc(Cl)c(-c3c(F)ccc(Cl)c3O)c(OCC(F)(F)F)c2)C1 [Example 16, 1-(3-(2,3′-dichloro-6′-fluoro-2′-hydroxy-6-(2,2,2-trifluoroethoxy)-[1,1′-biphenyl]-4-yl)-5,6-dihydro-[1,2,4]triazolo[4,3-a]pyrazin-7(8H)-yl)prop-2-en-1-one] | – | 1 to 10 |
| C=CC(=O)N1CCn2c(nnc2-c2cc(Cl)c(-c3c(O)cccc3F)c(OCC(F)(F)F)c2)C1 [Example 17, 1-(3-(2-chloro-2′-fluoro-6′-hydroxy-6-(2,2,2-trifluoroethoxy)-[1,1′-biphenyl]-4-yl)-5,6-dihydro-[1,2,4]triazolo[4,3-a]pyrazin-7(8H)-yl)prop-2-en-1-one] | – | ≤ 1 |
| C=CC(=O)N1CCn2c(nc(C(F)(F)F)c2-c2cc(F)c(-c3c(F)ccc(Cl)c3O)c(Cl)c2)C1 [Example 18, 1-(3-(2,3′-dichloro-6,6′-difluoro-2′-hydroxy-[1,1′-biphenyl]-4-yl)-2-(trifluoromethyl)-5,6-dihydroimidazo[1,2-a]pyrazin-7(8H)-yl)prop-2-en-1-one] | – | > 10 |

Source: patent publication US20230062486A1, “KRAS G12C INHIBITOR AND PHARMACEUTICAL USE THEREOF” (Betta Pharmaceuticals Co., LTD, priority 2019, published 2023)
